Experimental data published in patent US20050192314A1, “Urea derivatives as C-kit modulators” (Ambit Biosciences Corporation, priority 2003, published 2005).

Molecular target: T1, KIT(DKIN) (Homo sapiens, UniProt P10721)
T1 construct: KIT(DKIN); made in house
Assay: Binding constant (Kd) measurement, phage-displayed kinase competition binding assay: KIT(DKIN)
From the text: The term “ND” represents non-determined values.

T1 sequence (P10721 589-937 limits assumed): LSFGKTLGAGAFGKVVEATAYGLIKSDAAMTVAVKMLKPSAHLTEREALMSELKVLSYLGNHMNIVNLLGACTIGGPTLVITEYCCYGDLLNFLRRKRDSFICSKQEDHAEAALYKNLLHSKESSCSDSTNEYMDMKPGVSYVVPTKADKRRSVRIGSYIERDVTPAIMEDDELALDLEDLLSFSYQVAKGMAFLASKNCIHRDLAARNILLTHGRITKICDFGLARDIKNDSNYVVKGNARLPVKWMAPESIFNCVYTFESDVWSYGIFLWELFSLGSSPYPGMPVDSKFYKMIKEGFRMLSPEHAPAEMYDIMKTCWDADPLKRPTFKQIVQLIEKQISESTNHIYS

Compound | Kd
CC(C)(C)c1cc(NC(=O)Nc2ccc(OCc3ccc(F)cc3Cl)cc2)no1 [Compound G18] | 100 to 1000 nM
CC(C)(C)c1cc(NC(=O)Nc2ccc3cc4ccccc4cc3c2)no1 [Compound A18] | 1000 to 10000 nM
CC(C)(C)c1cc(NC(=O)Nc2ccc(C(=O)NCCO)cc2)no1 [Compound N87] | 100 to 1000 nM
Cc1ccc(NC(=O)Nc2cc(C(F)(F)F)cc(Cl)n2)cc1 [Compound W1] | 100 to 1000 nM
CC(C)(C)c1cc(NC(=O)Nc2ccccc2)no1 [Compound A2] | 100 to 1000 nM
Cc1ccc(-n2nc(C(C)(C)C)cc2NC(=O)Nc2ccc(OCc3ccccc3)cc2)cc1 [Compound H5] | > 10000 nM
CC(C)(C)c1cc(NC(=O)Nc2ccc(NS(=O)(=O)c3ccccc3)cc2)no1 [Compound V1] | 1000 to 10000 nM
CC(C)(C)c1cc(NC(=O)Nc2ccc(C(=O)NCc3ccc4c(c3)OCO4)cc2)no1 [Compound N97] | 100 to 1000 nM
COc1cc(NC(=O)Nc2cc(C(C)(C)C)no2)cc(OC)c1OC [Compound A49] | 100 to 1000 nM
Cc1cc(C)n(C(=O)Nc2ccc(Cl)cc2)n1 [Compound Z52] | > 10000 nM
CC(C)(C)c1cc(NC(=O)Nc2ccc(NC(=O)c3cn4cc(Cl)ccc4n3)cc2)no1 [Compound N3] | < 100 nM
CC(C)(C)c1cc(NC(=O)Nc2ccc(OCc3ccccc3Cl)cc2)no1 [Compound G10] | < 100 nM
NC(=O)c1c(NC(=O)Nc2ccc(Cl)c(Cl)c2)sc2c1CCCC2 [Compound Z56] | > 10000 nM
CC(C)(C)c1cc(NC(=O)Nc2ccc(NC(=O)c3csc(-c4ccc(Cl)cc4)n3)cc2)no1 [Compound N124] | 100 to 1000 nM
CC(C)(C)c1cc(NC(=O)Nc2ccc(NC(=O)C3CCNCC3)cc2)no1 [Compound N150] | 1000 to 10000 nM
COc1ccc(NC(=O)Nc2cc(C(C)(C)C)no2)cc1 [Compound A30] | 100 to 1000 nM
CC(C)(C)c1cc(NC(=O)Nc2ccc(OCc3ccccc3C(F)(F)F)cc2)no1 [Compound G4] | 100 to 1000 nM
CC(C)(C)c1cc(NC(=O)Nc2ccc(NC(=O)c3cc(Cl)nc(Cl)c3)cc2)no1 [Compound N132] | 1000 to 10000 nM
Cn1nc(C(C)(C)C)cc1NC(=O)Nc1ccc(OCc2ccccc2)cc1 [Compound H2] | 100 to 1000 nM
CC(C)(C)c1cc(NC(=O)Nc2ccc(NC(=O)c3cccnc3)cc2)no1 [Compound N1] | 100 to 1000 nM

Compound | Kd
CC(C)(C)c1cc(NC(=O)Nc2ccc(NC(=O)c3cc4cc(Br)ccc4s3)cc2)no1 [Compound N17] | 100 to 1000 nM
CC(C)(C)c1cc(NC(=O)Nc2ccc(NC(=O)c3c[nH]c(=O)nc3-c3ccncc3)cc2)no1 [Compound N19] | 1000 to 10000 nM
CC(C)(C)c1cc(NC(=O)Nc2ccc(NC(=O)Cc3ccc(-c4ccccc4)cc3)cc2)no1 [Compound N38] | 100 to 1000 nM
CC(C)(C)c1cc(NC(=O)Nc2ccc(OCC3CCC3)cc2)no1 [Compound G39] | < 100 nM
Cc1nn(C)c(Cl)c1C(=O)Nc1ccc(NC(=O)Nc2cc(C(C)(C)C)on2)cc1 [Compound N116] | 100 to 1000 nM
Cc1ccc(-n2nc(C(C)(C)C)cc2NC(=O)Nc2ccc(Cl)cc2)cc1 [Compound H14] | 1000 to 10000 nM
Cn1c(SCC(=O)Nc2ccc(NC(=O)Nc3cc(C(C)(C)C)on3)cc2)nnc1-c1cccn(Cc2ccccc2)c1=O [Compound Z47] | 100 to 1000 nM
CC(C)(C)c1cc(NC(=O)Nc2ccc(NC(=O)c3cnc(Cl)c(Cl)c3)cc2)no1 [Compound N123] | 1000 to 10000 nM
COc1ccc(NC(=O)Nc2cc(C(C)(C)C)on2)cc1 [Compound A29] | 1000 to 10000 nM
Cc1ccncc1C(=O)Nc1ccc(NC(=O)Nc2cc(C(C)(C)C)on2)cc1 [Compound N104] | 100 to 1000 nM
COc1ccc(-c2cc(C(=O)Nc3ccc(NC(=O)Nc4cc(C(C)(C)C)on4)cc3)c(C)o2)cc1 [Compound N118] | 1000 to 10000 nM
CCOC(=O)CCc1c(C)[nH]c(C(=O)Nc2ccc(NC(=O)Nc3cc(C(C)(C)C)on3)cc2)c1C [Compound N83] | 100 to 1000 nM
Cn1nc(C2CC2)cc1NC(=O)Nc1ccc(OCc2ccccc2)cc1 [Compound H7] | > 10000 nM
Cc1nc(C(=O)Nc2ccc(NC(=O)Nc3cc(C(C)(C)C)on3)cc2)nn1-c1cc(Cl)cc(Cl)c1 [Compound N15] | > 10000 nM
CC(C)(C)c1cc(NC(=O)Nc2ccc(NC(=O)c3ccccc3Cl)cc2)no1 [Compound N23] | < 100 nM
Cc1ccc(COc2ccc(NC(=O)Nc3cc(C(C)(C)C)on3)cc2)cc1 [Compound G15] | 100 to 1000 nM
CC(C)(C)c1cc(NC(=O)Nc2ccc(NC(=O)c3cc([N+](=O)[O-])ccn3)cc2)no1 [Compound N7] | < 100 nM
CC(C)(C)c1cc(NC(=O)Nc2ccc(CCc3ccc(N)cc3)cc2)no1 [Compound A3] | < 100 nM
CC(C)(C)c1cc(NC(=O)Nc2ccc(Cl)cc2)no1 [Compound A27] | 100 to 1000 nM
CNC(=O)c1ccc(NC(=O)Nc2cc(C(C)(C)C)on2)cc1 [Compound N85] | 100 to 1000 nM

Compound | Kd
CC(C)(C)c1cc(NC(=O)Nc2ccc(NC(=O)c3ccc4cccnc4n3)cc2)no1 [Compound N144] | 100 to 1000 nM
COc1ccc(-c2noc(-c3ccc(NC(=O)Nc4cc(C(C)(C)C)on4)cc3)n2)c2ccccc12 [Compound P3] | 1000 to 10000 nM
CC(C)(C)c1cc(NC(=O)Nc2ccc(NC(=O)c3ccc4ncccc4c3)cc2)no1 [Compound N151] | 100 to 1000 nM
CC(C)(C)c1cc(NC(=O)Nc2ccc(OCCN3CCCCC3)cc2)no1 [Compound G50] | > 10000 nM
Cc1ccc(-n2nc(C(C)(C)C)cc2NC(=O)Nc2ccc(OCCN3CCOC(CO)C3)c3ccccc23)cc1 (stereo not drawn) [Compound G38] | 100 to 1000 nM
O=C(Nc1ccc(Cl)cc1)Nc1ccc(-n2nc(Br)c(Br)c2Br)cc1 [Compound Z49] | 100 to 1000 nM
CC(C)(C)c1cc(NC(=O)Nc2ccc(OCc3ccc(F)cc3)cc2)no1 [Compound G35] | < 100 nM
CC(C)(C)c1cc(NC(=O)Nc2ccc(NC(=O)c3cccc4cccnc34)cc2)no1 [Compound N115] | < 100 nM
Cc1nnsc1C(=O)Nc1ccc(NC(=O)Nc2cc(C(C)(C)C)on2)cc1 [Compound N18] | 1000 to 10000 nM
COc1ccc(N(C)C(=O)Nc2cc(C(C)(C)C)on2)cc1 [Compound J10] | 100 to 1000 nM
CC(C)(C)c1cc(NC(=O)Nc2ccc(NC(=O)c3cc(Cl)cn(Cc4ccccc4)c3=O)cc2)no1 [Compound N112] | 1000 to 10000 nM
CC(C)(C)c1cc(NC(=O)Nc2ccc(OCc3ccc(C(F)(F)F)cc3)cc2)no1 [Compound G6] | 100 to 1000 nM
CC(C)(C)c1cc(NC(=O)Nc2ccc(OCc3ccc4ccccc4c3)cc2)no1 [Compound G3] | 100 to 1000 nM
CC(C)(C)c1cc(NC(=O)Nc2ccc(NC(=O)c3ccc(Cl)cc3Cl)cc2)no1 [Compound N130] | 1000 to 10000 nM
CC(C)(C)c1cc(NC(=O)Nc2ccc(NC(=O)c3cnc4ccccc4n3)cc2)no1 [Compound N149] | 1000 to 10000 nM
CC(C)(C)c1cc(NC(=O)Nc2ccc(NC(=O)c3cnc4cc(C(F)(F)F)ccc4c3O)cc2)no1 [Compound N146] | 1000 to 10000 nM
CC(C)(C)c1cc(NC(=O)Nc2ccc(OCc3ccc(Cl)cc3)cc2)no1 [Compound G34] | < 100 nM
CC(C)(C)c1cc(NC(=O)Nc2ccc(OCCN3CCNCC3)cc2)no1 [Compound G52] | > 10000 nM
COc1ccc(NC(=O)Nc2cc(C(F)(F)F)cc(Cl)n2)cc1 [Compound Z71] | 100 to 1000 nM
Cc1nccn1CCOc1ccc(NC(=O)Nc2cc(C(C)(C)C)on2)cc1 [Compound G51] | 100 to 1000 nM
